Entries after “also recorded” stand apart in the source; their conditions may differ.
What was measured:
E. coli LplA = biological target: T1, E. coli LplA (Escherichia coli, UniProt P32099); test: Measurement of LplA-probe ligation kinetics (HPLC); format: biochemical
T1 sequence (P32099 2-338 limits assumed): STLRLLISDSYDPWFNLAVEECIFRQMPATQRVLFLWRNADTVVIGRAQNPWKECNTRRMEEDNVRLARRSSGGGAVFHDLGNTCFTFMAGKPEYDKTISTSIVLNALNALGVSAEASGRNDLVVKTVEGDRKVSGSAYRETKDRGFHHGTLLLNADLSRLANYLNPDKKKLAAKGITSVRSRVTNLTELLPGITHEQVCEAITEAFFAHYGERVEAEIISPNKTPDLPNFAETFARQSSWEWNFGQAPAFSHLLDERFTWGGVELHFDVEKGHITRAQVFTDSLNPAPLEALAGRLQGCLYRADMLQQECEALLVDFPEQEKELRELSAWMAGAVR
Experimental: To measure the kcat for LplA ligation of lipoic acid to E2p, 50 nM LplA was combined with 200 μM E2p, 750 μM lipoic acid, […], and 2 mM magnesium acetate in 25 mM sodium phosphate pH 7.0. The reaction was initiated with addition of 1 mM ATP to the pre-warmed (30° C.) mixture. The reaction was incubated at 30° C., and 90 μL aliquots were removed every 5 minutes and quenched with 50 mM EDTA (final concentration). Samples were analyzed by C18 reverse-phase HPLC as described in the “Methods” section. Measurements were performed in triplicate. A calibration curve was obtained that correlated the ratio of integrated HPLC peak areas (E2p:E2p-probe) to the actual protein ratio, in order to compensate for differences in the extinction coefficients of E2p and lipoylated E2p. The amount of product obtained at each time point was plotted against time, to obtain the Vmax of the reaction. From this, the kcat value was obtained using the equation Vmax=kcat [E]total.
90 μL aliquots were removed from the 30° C. reactions at 5 minutes intervals, up to 30 minutes, and quenched with 50 mM EDTA (final concentration). Samples were analyzed by HPLC as above. The amount of product obtained at each time point was plotted against time, to obtain the initial velocity for each concentration of azide 7. […] From the Vmax value, kcat was calculated using the equation Vmax=kcat [E]total.

[1] = tested on: mitochondrial respiration; test: Effect of azide 7 on mitochondrial respiration; format: cell-based; conditions: 24-hour exposure, concentrations less than 750 μM
LplA [2] = biological target: T2, LplA (Escherichia coli, UniProt P32099); test: In vitro LplA activity assay: probe ligation onto E2p (HPLC); format: biochemical, E. coli; conditions: 350 μM probe, 200 μM E2p, 30 minutes
Experimental: LplA reactions contained 2 μM LplA, 200 μM E2p, 350 μM probe, 1 mM ATP, 2 mM magnesium acetate, and 25 mM sodium phosphate pH 7.0. Reactions were incubated at 30° C. for 30 minutes, and then quenched with EDTA (final concentration 50 mM). Conversion to product was determined by HPLC on a C18 reverse-phase column with a 40-57% gradient of acetonitrile in water with 0.1% trifluoroacetic acid over 20 minutes (flow rate 1.0 mL/minute). […] Percent conversion to product was calculated from the ratio of the E2p-probe peak area to the sum of (E2p+E2p-probe) peak areas. All measurements were performed in triplicate.

LplA [3] = biological target: T2, LplA; test: HPLC analysis of LplA modification of HP1-peptide fusions; kcat of azide 7 ligation to LAP; format: biochemical, E. coli; conditions: C-terminal fusion to HP1 versus peptide 8
Experimental: To compare the conversion rates for different peptide substrates, reactions were assembled as follows: 1.5 μM LplA, 150 μM HP1-peptide fusion, 750 μM azide 7, 1 mM ATP, and 2 mM magnesium acetate in 25 mM sodium phosphate pH 7.0. Reactions were incubated at 30° C. for 2 hours, then quenched with 50 mM EDTA (final concentration), and subsequently analyzed by C18 reverse-phase HPLC using a gradient of 30-45% acetonitrile in water with 0.1% trifluoroacetic acid over 20 minutes with a 1 mL/minute flow rate. Retention times for unmodified HP1-peptide fusions ranged from 8-12 minutes, and shifted to 16-21 minutes after ligation to azide 7. Measurements were performed in triplicate. The extent of modification was calculated from the ratio of HP1-peptide-azide 7 peak area to the sum of (HP1-peptide+HP1-peptide-azide 7) peak areas.

O=C(O)CCCC[C@@H]1CCSS1 (racemic) [lipoic acid]
kcat of LplA-catalyzed ligation to E2p (E. coli LplA; 30° C., pH 7.0): 0.253 ± 0.003 s⁻¹

[N-]=[N+]=NCCCCCCCC(=O)O [azide 7, 8-azidooctanoic acid]
effect on mitochondrial respiration [1]: no effect
Kcat relative to the measured Kcat for lipoic acid ligation (E. coli LplA; ligation to E2p): 2.3 fold
incorporation / ligation kinetics by LplA (LplA [2]): fastest kinetics; also recorded: best kinetics

peptide 9: peptide 8 fused to the C-terminal end of HP1 (SEQ ID NO: 9) (DEVLVEIETDKAVLEVP)
drop of lipoylation rate (LplA [3]): 5 fold
